ChEMBL document CHEMBL5442334, “ASAP - In vitro safety pharmacology profile” (2024)

Legend:
Details in all cases: Test compound concentration 10.0 uM
[1] = target: Prostaglandin G/H synthase 1 (Homo sapiens) (UniProt P23219); experiment: SafetyScreen: COX1 Human Cyclooxygenase Enzymatic LeadHunter Assay, catalogue number: 4173; type: functional
[2] = target: Sodium-dependent dopamine transporter (Homo sapiens) (UniProt Q01959); experiment: SafetyScreen: DAT Human Dopamine Transporter Binding Antagonist Radioligand LeadHunter Assay, catalogue number: 52
[3] = target: T1, Endothelin-1 receptor (Homo sapiens) (UniProt P25101); experiment: SafetyScreen: ETA Human Endothelin GPCR Binding Agonist Radioligand LeadHunter Assay, catalogue number: 54
T1 sequence (whole entry): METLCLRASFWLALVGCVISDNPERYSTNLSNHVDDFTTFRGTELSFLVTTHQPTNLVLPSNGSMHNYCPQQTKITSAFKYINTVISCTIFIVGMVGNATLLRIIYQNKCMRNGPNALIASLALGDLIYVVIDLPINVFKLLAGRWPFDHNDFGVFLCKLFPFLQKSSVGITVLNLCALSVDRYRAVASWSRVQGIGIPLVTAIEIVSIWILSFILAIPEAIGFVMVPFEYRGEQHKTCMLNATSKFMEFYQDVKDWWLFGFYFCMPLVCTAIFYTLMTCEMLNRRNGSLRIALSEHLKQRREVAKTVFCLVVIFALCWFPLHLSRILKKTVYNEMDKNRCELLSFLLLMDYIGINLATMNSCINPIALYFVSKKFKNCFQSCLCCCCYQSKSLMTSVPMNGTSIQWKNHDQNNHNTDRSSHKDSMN

[4] = target: Cannabinoid receptor 2 (Homo sapiens) (UniProt P34972); experiment: SafetyScreen: CB2 Human Cannabinoid GPCR Binding Agonist Radioligand LeadHunter Assay, catalogue number: 37
[5] = target: T2, 5-hydroxytryptamine receptor 3A (Homo sapiens) (UniProt P46098); experiment: SafetyScreen: 5-HT3 Human Serotonin Ion Channel Binding Antagonist Radioligand LeadHunter Assay, catalogue number: 411
T2 sequence (whole entry): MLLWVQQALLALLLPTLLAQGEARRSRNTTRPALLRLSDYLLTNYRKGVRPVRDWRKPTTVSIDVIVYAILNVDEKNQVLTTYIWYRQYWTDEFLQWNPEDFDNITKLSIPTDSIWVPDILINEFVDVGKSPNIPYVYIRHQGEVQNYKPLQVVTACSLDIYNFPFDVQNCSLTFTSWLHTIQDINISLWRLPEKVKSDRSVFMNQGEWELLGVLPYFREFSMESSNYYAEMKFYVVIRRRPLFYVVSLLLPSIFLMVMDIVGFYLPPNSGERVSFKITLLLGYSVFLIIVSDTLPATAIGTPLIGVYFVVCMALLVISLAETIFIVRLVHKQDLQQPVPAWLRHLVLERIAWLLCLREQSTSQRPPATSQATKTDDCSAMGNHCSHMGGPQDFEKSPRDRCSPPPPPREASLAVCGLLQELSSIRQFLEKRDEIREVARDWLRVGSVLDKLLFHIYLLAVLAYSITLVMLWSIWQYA

[6] = target: Beta-1 adrenergic receptor (Homo sapiens) (UniProt P08588); experiment: SafetyScreen: beta1 Human Adrenoceptor GPCR Binding Agonist Radioligand LeadHunter Assay, catalogue number: 18
[7] = target: Delta-type opioid receptor (Homo sapiens) (UniProt P41143); experiment: SafetyScreen: delta (DOP) Human Opioid GPCR Binding Agonist Radioligand LeadHunter Assay, catalogue number: 114
[8] = target: Histamine H2 receptor (Homo sapiens) (UniProt P25021); experiment: SafetyScreen: H2 Human Histamine GPCR Binding Antagonist Radioligand LeadHunter Assay, catalogue number: 1208
Histamine H2 receptor (Homo sapiens), sequence (P25021 whole entry): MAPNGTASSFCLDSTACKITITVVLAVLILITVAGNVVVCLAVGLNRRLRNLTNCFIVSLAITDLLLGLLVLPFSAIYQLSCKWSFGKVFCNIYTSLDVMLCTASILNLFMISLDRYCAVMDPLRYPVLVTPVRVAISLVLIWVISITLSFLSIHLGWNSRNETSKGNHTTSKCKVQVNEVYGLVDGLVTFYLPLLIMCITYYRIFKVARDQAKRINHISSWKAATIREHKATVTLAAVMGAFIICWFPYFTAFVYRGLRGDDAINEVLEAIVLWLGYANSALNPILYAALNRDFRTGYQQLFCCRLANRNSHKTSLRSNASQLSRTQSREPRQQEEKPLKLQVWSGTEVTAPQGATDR

Cannabinoid receptor 2 (Homo sapiens), sequence (P34972 whole entry): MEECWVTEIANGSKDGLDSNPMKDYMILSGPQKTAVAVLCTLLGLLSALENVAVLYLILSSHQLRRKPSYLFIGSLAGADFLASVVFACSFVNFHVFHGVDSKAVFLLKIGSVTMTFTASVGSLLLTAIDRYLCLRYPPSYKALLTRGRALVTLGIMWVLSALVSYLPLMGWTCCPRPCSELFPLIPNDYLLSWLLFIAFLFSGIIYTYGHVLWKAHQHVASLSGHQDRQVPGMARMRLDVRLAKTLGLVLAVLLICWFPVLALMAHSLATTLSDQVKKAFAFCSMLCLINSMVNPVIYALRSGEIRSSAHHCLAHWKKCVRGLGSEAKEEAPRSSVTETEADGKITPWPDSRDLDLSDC
Prostaglandin G/H synthase 1 (Homo sapiens), sequence (P23219 whole entry): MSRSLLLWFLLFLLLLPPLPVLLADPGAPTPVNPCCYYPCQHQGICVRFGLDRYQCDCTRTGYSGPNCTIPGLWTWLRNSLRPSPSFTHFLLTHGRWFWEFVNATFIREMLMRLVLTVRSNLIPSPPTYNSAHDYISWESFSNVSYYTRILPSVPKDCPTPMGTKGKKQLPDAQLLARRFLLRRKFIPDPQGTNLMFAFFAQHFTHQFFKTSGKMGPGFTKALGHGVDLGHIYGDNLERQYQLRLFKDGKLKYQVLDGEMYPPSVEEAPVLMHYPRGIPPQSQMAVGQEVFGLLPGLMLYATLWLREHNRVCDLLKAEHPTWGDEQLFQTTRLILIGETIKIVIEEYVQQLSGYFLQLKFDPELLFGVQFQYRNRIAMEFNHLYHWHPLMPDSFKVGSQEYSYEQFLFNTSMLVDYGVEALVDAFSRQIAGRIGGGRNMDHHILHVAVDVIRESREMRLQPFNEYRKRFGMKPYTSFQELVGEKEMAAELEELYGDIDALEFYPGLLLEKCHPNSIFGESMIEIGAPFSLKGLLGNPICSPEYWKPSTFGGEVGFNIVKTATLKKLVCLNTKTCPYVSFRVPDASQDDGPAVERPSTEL
Delta-type opioid receptor (Homo sapiens), sequence (P41143 whole entry): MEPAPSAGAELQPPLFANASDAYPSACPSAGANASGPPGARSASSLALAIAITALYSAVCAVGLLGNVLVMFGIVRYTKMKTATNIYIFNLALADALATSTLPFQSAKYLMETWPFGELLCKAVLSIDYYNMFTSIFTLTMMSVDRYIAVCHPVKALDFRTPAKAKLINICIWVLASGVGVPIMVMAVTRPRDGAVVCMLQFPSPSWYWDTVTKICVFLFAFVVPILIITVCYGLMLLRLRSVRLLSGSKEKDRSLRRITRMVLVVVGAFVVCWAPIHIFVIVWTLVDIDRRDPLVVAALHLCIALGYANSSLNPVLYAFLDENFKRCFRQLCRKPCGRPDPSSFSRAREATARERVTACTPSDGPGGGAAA
Beta-1 adrenergic receptor (Homo sapiens), sequence (P08588 whole entry, looked up): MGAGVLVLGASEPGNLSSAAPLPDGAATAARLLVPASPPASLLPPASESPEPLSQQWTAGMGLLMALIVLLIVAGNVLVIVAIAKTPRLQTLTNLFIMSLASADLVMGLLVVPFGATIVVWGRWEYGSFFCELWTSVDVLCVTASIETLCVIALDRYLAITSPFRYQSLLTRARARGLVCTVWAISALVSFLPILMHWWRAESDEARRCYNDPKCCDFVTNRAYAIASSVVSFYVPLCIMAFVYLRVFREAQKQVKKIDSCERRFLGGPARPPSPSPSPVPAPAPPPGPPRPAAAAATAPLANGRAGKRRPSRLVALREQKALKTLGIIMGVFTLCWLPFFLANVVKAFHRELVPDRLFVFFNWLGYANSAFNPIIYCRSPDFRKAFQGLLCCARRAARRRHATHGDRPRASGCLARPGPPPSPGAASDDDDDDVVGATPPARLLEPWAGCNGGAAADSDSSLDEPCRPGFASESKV
Sodium-dependent dopamine transporter (Homo sapiens), sequence (Q01959 whole entry): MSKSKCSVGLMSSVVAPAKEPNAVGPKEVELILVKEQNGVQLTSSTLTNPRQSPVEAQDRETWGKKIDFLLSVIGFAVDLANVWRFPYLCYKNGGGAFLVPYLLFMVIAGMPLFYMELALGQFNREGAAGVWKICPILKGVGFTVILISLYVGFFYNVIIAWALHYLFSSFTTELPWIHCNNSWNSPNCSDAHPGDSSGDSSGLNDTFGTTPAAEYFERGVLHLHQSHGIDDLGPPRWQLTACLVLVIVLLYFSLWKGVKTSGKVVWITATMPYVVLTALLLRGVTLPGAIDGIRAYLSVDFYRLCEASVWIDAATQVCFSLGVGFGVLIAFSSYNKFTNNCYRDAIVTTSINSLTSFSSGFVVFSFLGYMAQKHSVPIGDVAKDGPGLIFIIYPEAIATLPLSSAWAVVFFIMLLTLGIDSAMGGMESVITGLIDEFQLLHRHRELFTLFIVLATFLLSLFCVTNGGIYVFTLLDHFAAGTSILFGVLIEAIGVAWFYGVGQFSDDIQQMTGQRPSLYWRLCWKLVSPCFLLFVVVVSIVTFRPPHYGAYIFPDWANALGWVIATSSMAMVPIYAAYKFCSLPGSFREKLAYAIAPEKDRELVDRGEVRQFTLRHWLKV

Structure (SMILES)	inhibition [1] [%]	inhibition [2] [%]	inhibition [3] [%]	inhibition [4] [%]	inhibition [5] [%]	inhibition [6] [%]	inhibition [7] [%]	inhibition [8] [%]
C[C@H](C(=O)O)[C@@H](NC(=O)c1ncnc2[nH]ccc12)c1ccc(Br)cc1	14	4	-2	-5	2	-5	–	–
COc1ccc([C@H](Cc2nnn[nH]2)NC(=O)c2ncnc3[nH]ccc23)cc1	17	7	2	–	6	-3	–	–
CC(C)[C@@H](Nc1ncnc2[nH]c(-c3cnn(C)c3C#N)cc12)c1ccc2c(n1)OCCO2	–	30	5	16	4	-2	71	–
CNC(=O)Cn1cc(-c2cc3c(N[C@@H](c4ccc5c(c4)S(=O)(=O)CCC5)C(C)C)ncnc3[nH]2)cn1	-8	1	-4	–	5	5	7	–
CC(C)[C@H](Nc1ncnc2[nH]ccc12)c1ccc2c(c1)S(=O)(=O)CCC2	85	27	-1	–	8	11	30	-6
Cn1ncc(-c2cc3c(N[C@@H](c4ccc5c(n4)OCCO5)C(C)(C)C)ncnc3[nH]2)c1C#N	–	50	9	31	3	11	15	-10
CC(C)[C@@H](Nc1ncnc2[nH]c(C(=O)N[C@@H]3CCN(C)C3)cc12)c1ccc2c(c1)S(=O)(=O)CCC2	44	22	-6	-8	2	4	–	-9
CNCc1cc(-c2cc3c(N[C@@H](c4ccc5c(c4)S(=O)(=O)CCC5)C(C)C)ncnc3[nH]2)co1	-6	50	-1	-8	0	-4	53	-3
Cc1nn(C)cc1-c1cc2c(N[C@H](c3ccc4c(c3)S(=O)(=O)CCC4)C(C)C)ncnc2[nH]1	–	13	-4	-8	6	1	16	-4
CC(C)[C@H](Nc1ncnc2[nH]c(-c3cnn(C)c3C#N)cc12)c1ccc2c(n1)OCCO2	–	29	42	44	6	11	58	–
